From PubChem BioAssay (NCI)
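A five-concentration, 48-hour dose response in 96-well plates underlies each endpoint, interpolated linearly between surrounding concentrations. GI50: concentration for 50% inhibition of growth. Definition used: TGI = concentration required for complete inhibition of growth.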

Experiments:
Test in all cases: NCI tumour cell line growth inhibition, 48 h
NCI/ADR-RES ovarian = system: NCI/ADR-RES ovarian
HCC-2998 colon = system: HCC-2998 colon
U251 CNS = system: U251 CNS
CCRF-CEM leukemia = system: CCRF-CEM leukemia
SK-MEL-2 melanoma = system: SK-MEL-2 melanoma
MDA-MB-231 breast = system: MDA-MB-231 breast
UACC-257 melanoma = system: UACC-257 melanoma
MCF7 breast = system: MCF7 breast
HS 578T breast = system: HS 578T breast
HCT-15 colon = system: HCT-15 colon
SF-295 CNS = system: SF-295 CNS
SN12C renal = system: SN12C renal
M14 melanoma = system: M14 melanoma
NCI-H460 lung = system: NCI-H460 lung
NCI-H23 lung = system: NCI-H23 lung
KM12 colon = system: KM12 colon
BT-549 breast = system: BT-549 breast
OVCAR-3 ovarian = system: OVCAR-3 ovarian
UACC-62 melanoma = system: UACC-62 melanoma
COLO 205 colon = system: COLO 205 colon
NCI-H522 lung = system: NCI-H522 lung
TK-10 renal = system: TK-10 renal
DU-145 prostate = system: DU-145 prostate
A549 NSCLC = system: A549 NSCLC
SK-MEL-5 melanoma = system: SK-MEL-5 melanoma
786-0 renal = system: 786-0 renal
HOP-62 NSCLC = system: HOP-62 NSCLC
MALME-3M melanoma = system: MALME-3M melanoma
NCI-H226 lung = system: NCI-H226 lung
A498 renal = system: A498 renal
SK-OV-3 ovarian = system: SK-OV-3 ovarian
RXF 393 renal = system: RXF 393 renal
OVCAR-5 ovarian = system: OVCAR-5 ovarian
SK-MEL-28 melanoma = system: SK-MEL-28 melanoma
T-47D breast = system: T-47D breast
ACHN renal = system: ACHN renal
CAKI-1 renal = system: CAKI-1 renal
MDA-MB-435 = system: MDA-MB-435
OVCAR-8 ovarian = system: OVCAR-8 ovarian
SR leukemia = system: SR leukemia
PC-3 prostate = system: PC-3 prostate
UO-31 renal = system: UO-31 renal
OVCAR-4 ovarian = system: OVCAR-4 ovarian
HOP-92 NSCLC = system: HOP-92 NSCLC
LOX IMVI melanoma = system: LOX IMVI melanoma
SF-268 CNS = system: SF-268 CNS
SNB-19 CNS = system: SNB-19 CNS
K-562 leukemia = system: K-562 leukemia
HT29 colon = system: HT29 colon
HL-60(TB) leukemia = system: HL-60(TB) leukemia
MOLT-4 leukemia = system: MOLT-4 leukemia
HCT-116 colon = system: HCT-116 colon
SF-539 CNS = system: SF-539 CNS
RPMI-8226 leukemia = system: RPMI-8226 leukemia
IGROV1 ovarian = system: IGROV1 ovarian
SNB-75 CNS = system: SNB-75 CNS
SW-620 colon = system: SW-620 colon

For `CCN(Cc1ccccc1OC)c1ccc(CO)c(Cl)c1`, the GI50 (NCI/ADR-RES ovarian) was 9.22 µM, the TGI (NCI/ADR-RES ovarian) was 26.9 µM and the GI50 (HCC-2998 colon) was 10.7 µM. For the same compound, the TGI (HCC-2998 colon) was 24.5 µM, the GI50 (U251 CNS) was 1.38 µM and the TGI (U251 CNS) was 14.8 µM. It also gave a GI50 (CCRF-CEM leukemia) of 19 µM, a TGI (CCRF-CEM leukemia) of 60.3 µM and a GI50 (SK-MEL-2 melanoma) of 2.11 µM. For the same compound, the TGI (SK-MEL-2 melanoma) was 10.9 µM, the GI50 (MDA-MB-231 breast) was 11.1 µM and the TGI (MDA-MB-231 breast) was 24.9 µM. The GI50 (UACC-257 melanoma) was 0.162 µM, the TGI (UACC-257 melanoma) was 0.498 µM and the GI50 (MCF7 breast) was 0.566 µM. For the same compound, the TGI (MCF7 breast) was 12.3 µM, the GI50 (HS 578T breast) was 13.4 µM and the TGI (HS 578T breast) was 37.2 µM. For the same compound, the GI50 (HCT-15 colon) was 7.11 µM, the TGI (HCT-15 colon) was 23.6 µM and the GI50 (SF-295 CNS) was 2.71 µM. The TGI (SF-295 CNS) was 15.3 µM, the GI50 (SN12C renal) was 11.1 µM and the TGI (SN12C renal) was 23.5 µM. It also gave a GI50 (M14 melanoma) of 12.4 µM, a TGI (M14 melanoma) of 25.5 µM and a GI50 (NCI-H460 lung) of 0.511 µM. It also gave a TGI (NCI-H460 lung) of 11.6 µM, a GI50 (NCI-H23 lung) of 8.96 µM and a TGI (NCI-H23 lung) of 29.9 µM. It also gave a GI50 (KM12 colon) of 11 µM, a TGI (KM12 colon) of 25.8 µM and a GI50 (BT-549 breast) of 12.8 µM. The TGI (BT-549 breast) was 26 µM, the GI50 (OVCAR-3 ovarian) was 0.767 µM and the TGI (OVCAR-3 ovarian) was 4.48 µM. The GI50 (UACC-62 melanoma) was 0.223 µM, the TGI (UACC-62 melanoma) was 1.79 µM and the GI50 (COLO 205 colon) was 4.81 µM. For the same compound, the TGI (COLO 205 colon) was 14.4 µM, the GI50 (NCI-H522 lung) was 12 µM and the TGI (NCI-H522 lung) was 26.1 µM. For the same compound, the GI50 (TK-10 renal) was 0.0512 µM, the TGI (TK-10 renal) was 0.372 µM and the GI50 (DU-145 prostate) was 15.8 µM. The TGI (DU-145 prostate) was 33.4 µM, the GI50 (A549 NSCLC) was 4.26 µM and the TGI (A549 NSCLC) was 19.8 µM. The GI50 (SK-MEL-5 melanoma) was 6.61 µM, the TGI (SK-MEL-5 melanoma) was 19.9 µM and the GI50 (786-0 renal) was 13 µM. For the same compound, the TGI (786-0 renal) was 26.2 µM, the GI50 (HOP-62 NSCLC) was 3.16 µM and the TGI (HOP-62 NSCLC) was 16.4 µM. For the same compound, the GI50 (MALME-3M melanoma) was 12.9 µM, the TGI (MALME-3M melanoma) was 27.5 µM and the GI50 (NCI-H226 lung) was 0.0487 µM. It also gave a TGI (NCI-H226 lung) of 0.179 µM, a GI50 (A498 renal) of 0.0454 µM and a TGI (A498 renal) of 0.13 µM. The GI50 (SK-OV-3 ovarian) was 7.15 µM, the TGI (SK-OV-3 ovarian) was 20.9 µM and the GI50 (RXF 393 renal) was 7.61 µM. For the same compound, the TGI (RXF 393 renal) was 24.7 µM, the GI50 (OVCAR-5 ovarian) was 0.123 µM and the TGI (OVCAR-5 ovarian) was 0.416 µM. For the same compound, the GI50 (SK-MEL-28 melanoma) was 10.3 µM, the TGI (SK-MEL-28 melanoma) was 24.8 µM and the GI50 (T-47D breast) was 0.091 µM. The TGI (T-47D breast) was 0.685 µM, the GI50 (ACHN renal) was 14.1 µM and the TGI (ACHN renal) was 27.4 µM. The GI50 (CAKI-1 renal) was 5.62 µM, the TGI (CAKI-1 renal) was 23.9 µM and the GI50 (MDA-MB-435) was 3.06 µM. For the same compound, the TGI (MDA-MB-435) was 12.4 µM, the GI50 (OVCAR-8 ovarian) was 12.4 µM and the TGI (OVCAR-8 ovarian) was 31.8 µM. For the same compound, the GI50 (SR leukemia) was 8.53 µM, the TGI (SR leukemia) was 40.9 µM and the GI50 (PC-3 prostate) was 12.3 µM. The TGI (PC-3 prostate) was 27.9 µM, the GI50 (UO-31 renal) was 11.5 µM and the TGI (UO-31 renal) was 24.7 µM. It also gave a GI50 (OVCAR-4 ovarian) of 0.518 µM, a TGI (OVCAR-4 ovarian) of 10.3 µM and a GI50 (HOP-92 NSCLC) of 1.66 µM. For the same compound, the TGI (HOP-92 NSCLC) was 8.51 µM, the GI50 (LOX IMVI melanoma) was 15.1 µM and the TGI (LOX IMVI melanoma) was 29.6 µM. It also gave a GI50 (SF-268 CNS) of 15.1 µM, a TGI (SF-268 CNS) of 30.7 µM and a GI50 (SNB-19 CNS) of 13.7 µM. It also gave a TGI (SNB-19 CNS) of 31.8 µM, a GI50 (K-562 leukemia) of 2.16 µM and a TGI (K-562 leukemia) of 12.1 µM. It also gave a GI50 (HT29 colon) of 4.7 µM, a TGI (HT29 colon) of 18 µM and a GI50 (HL-60(TB) leukemia) of 11.8 µM. It also gave a TGI (HL-60(TB) leukemia) of 34.9 µM, a GI50 (MOLT-4 leukemia) of 18.1 µM and a TGI (MOLT-4 leukemia) of 46.2 µM. For the same compound, the GI50 (HCT-116 colon) was 0.215 µM, the TGI (HCT-116 colon) was 8.77 µM and the GI50 (SF-539 CNS) was 14.4 µM. The TGI (SF-539 CNS) was 27.8 µM, the GI50 (RPMI-8226 leukemia) was 2.67 µM and the TGI (RPMI-8226 leukemia) was 21.5 µM. It also gave a GI50 (IGROV1 ovarian) of 0.0502 µM, a TGI (IGROV1 ovarian) of 0.337 µM and a GI50 (SNB-75 CNS) of 9.47 µM. For the same compound, the TGI (SNB-75 CNS) was 26.5 µM, the GI50 (SW-620 colon) was 2.33 µM and the TGI (SW-620 colon) was 17.5 µM.
